Test results reported in the supplement of paper PMC10307832.

Assays:
Assay in all cases: relative viability (nuclei count vs DMSO), 5 days (fraction); higher = more cells survive
[1] = compound: CC1=CC(=C(N1C2=CC=C(C=C2)Cl)C)C(=O)CN3CCCCC3 [IU1-47] + COc1cc2c(Oc3ccc(NC(=O)C4(C(=O)Nc5ccc(F)cc5)CC4)cc3F)ccnc2cc1OCCCN1CCOCC1 [Foretinib] (partner 0.25 µM)
How it was run: (§1)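 Relative viability equals treated-well nuclei counts divided by vehicle-well nuclei counts. Counts came from 4× images of lung cancer cell lines grown in 1536-well plates for 5 days after pin-tool dosing on the day after seeding. Dosing used one drug alone or a fixed anchor-drug dose plus five library-drug doses (not always all listed) in √10 steps, and values are medians of duplicate plates.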

[2] = compound: Cc1nc(C(=O)NCC(=O)O)c(O)c2ccc(Oc3ccccc3)cc12 [FG-4592] + CC(=O)Nc1cccc(-n2c(=O)n(C3CC3)c(=O)c3c(Nc4ccc(I)cc4F)n(C)c(=O)c(C)c32)c1 [Trametinib] (partner 0.02 µM)
How it was run: as §1

[3] = compound: CC1=CC(=C(N1C2=CC=C(C=C2)Cl)C)C(=O)CN3CCCCC3 [IU1-47] + O=C(CCCCCCC(=O)Nc1ccccc1)NO [Vorinostat] (partner 1 µM)
How it was run: as §1

[4] = compound: Cc1nc(C(=O)NCC(=O)O)c(O)c2ccc(Oc3ccccc3)cc12 [FG-4592] + CC1(C)CCC(c2ccc(Cl)cc2)=C(CN2CCN(c3ccc(C(=O)NS(=O)(=O)c4ccc(N[C@H](CCN5CCOCC5)CSc5ccccc5)c(S(=O)(=O)C(F)(F)F)c4)cc3)CC2)C1 [Navitoclax] (partner 0.5 µM)
How it was run: as §1

Cell Line	relative viability ([1]; first compound 0.08 µM)	relative viability ([1]; first compound 0.253 µM)	relative viability ([1]; first compound 0.8 µM)	relative viability ([1]; first compound 2.53 µM)	relative viability ([1]; first compound 8 µM)	relative viability ([2]; first compound 0.08 µM)	relative viability ([2]; first compound 0.253 µM)	relative viability ([2]; first compound 0.8 µM)	relative viability ([2]; first compound 2.53 µM)	relative viability ([2]; first compound 8 µM)	relative viability ([3]; first compound 0.08 µM)	relative viability ([3]; first compound 0.253 µM)	relative viability ([3]; first compound 0.8 µM)	relative viability ([3]; first compound 2.53 µM)	relative viability ([3]; first compound 8 µM)	relative viability ([4]; first compound 0.08 µM)	relative viability ([4]; first compound 0.253 µM)	relative viability ([4]; first compound 0.8 µM)	relative viability ([4]; first compound 2.53 µM)	relative viability ([4]; first compound 8 µM)
NCI-H2085	0.922	1.19	0.926	0.922	0.767	0.48	0.539	0.718	0.629	0.516	0.853	0.861	0.791	0.626	0.76	1.18	1.09	1.1	1.15	1.08
NCI-H2087	1.26	1.14	1.31	–	1.18	0.224	0.19	0.198	–	0.235	0.902	0.716	0.83	0.723	0.489	1.01	0.946	1.04	0.98	1.03
NCI-H2126	1.28	1.17	1.22	0.723	1.03	0.586	0.576	0.455	0.534	0.476	0.895	0.775	0.801	0.478	0.731	0.825	0.773	0.817	0.875	0.807
NCI-H2170	1.14	1.08	1.03	0.994	1.24	0.874	0.886	0.858	0.946	0.637	0.997	0.973	0.921	0.748	0.747	0.708	0.593	0.691	0.485	0.322
NCI-H2228	1.14	1.05	0.975	0.827	0.75	0.497	0.503	0.494	0.406	0.208	0.577	0.6	0.725	0.692	0.563	0.949	0.663	0.896	0.832	0.819
NCI-H2347	0.707	0.605	0.843	1.17	1.1	0.315	0.323	0.267	0.326	0.28	0.668	0.628	0.662	0.444	0.528	0.862	–	0.648	0.804	0.897
NCI-H2405	1.13	1.11	1	1.05	1.07	0.548	0.57	0.507	0.587	0.411	1.06	1.08	1.14	0.925	1.01	–	0.437	0.874	0.731	0.711
NCI-H3122	–	0.94	1.02	1.07	0.976	0.19	0.244	0.196	0.264	0.119	1.29	1.15	1.17	1.06	1.01	1.03	0.978	0.997	1.03	1.05
